{"source": "patent US4977172A", "about": "“Method of treating the symptoms of cognitive decline in an elderly patient employing (S)-3-ethyl-4-[(1-methyl-1H-imidazol-5-yl)-methyl]-2-oxazolidinone” (Warner-Lambert Company, priority 1989, dated 1990)", "key": {"[1]": {"tested_on": "central muscarinic antagonist and agonist binding sites, rat cerebral cortex tissue", "experiment": "Receptor [3H]quinuclidinyl benzilate (RQNB) / [3H]cis-methyldioxalane (RCMD) binding, ratio of IC50 values", "details": "agonists ratio >=100, antagonists near 1, partial agonists between 1 and 100", "experimental": "The biological activity of (S)-3-ethyl-4-[(1-methyl-1H-imidazol-5-yl)methyl]-2-oxazolidinone or a pharmaceutically acceptable salt thereof as an agent for the treatment of the symptoms of cognitive decline in an elderly patient including Alzheimer's disease was evaluated using a number of tests. The activity of the aforementioned compound or pharmaceutically acceptable salt thereof as a central muscarinic binding site agonist and antagonist was measured. Thus, in the Receptor [^3 H]Quinuclidinyl Benzilate Binding Assay (RQNB), described more fully by Watson, M., et al, Journal of Pharmacology and Experimental Therapeutics, 237, pages 411-418 (1986), rat cerebral cortex tissue is treated with radiolabeled quinuclidinyl benzilate, a known muscarinic binding site antagonist. The concentration of test compound required to inhibit 50% of the binding of this muscarinic antagonist is then determined. This procedure allows a determination of the affinity of the test compound for the central muscarinic antagonist site. […] The concentration of test compound required to inhibit 50% of the binding of this muscarinic agonist is then determined. […]"}, "[2]": {"tested_on": "M1 receptors / M2 receptors", "experiment": "M1/M2 receptor binding: transformed cells possessing only M1 receptors and heart tissue (M2 receptors)", "text": "On the basis of molecular biology techniques, five subtypes of muscarinic receptors have been identified. For an agent useful in the treatment of cognitive decline in a patient, the relevant receptors are M1 since they are predominantly localized in brain areas associated with memory and learning (cortex and hippocampus). For comparison, M2 receptors are predominantly localized in peripheral tissues (e.g. the heart). […] The ratio of M1/M2 is shown in Table I. (S)-3-Ethyl-4-[(1-methyl-1H-imidazol-5-yl)methyl]-2-oxazolidinone is 3-fold selective for M1receptors over M2 receptors"}, "[3]": {"tested_on": "rat", "experiment": "Increase in rate of stomach emptying (M1 active)", "assay_type": "in vivo", "details": "PO", "text": "(§1) Thus, the receptor binding selectivity of (S)-3-ethyl-4-[(1-methyl-1H-imidazol-5-yl)methyl]-2-oxazolidinone translates into pharmacologic specificity in the whole animal with M1 actions (stomach emptying) predominating over M2 actions (enhanced intestinal motility). […] Additionally, as shown in Table I in the central nervous system the compound increases neocortical arousal as measured by quantitative electroencephalography at doses below those required to increase local cortical blood flow in rats."}, "[4]": {"tested_on": "rat", "experiment": "Increase in smooth muscle motility of the intestines (M2 active)", "assay_type": "in vivo", "details": "PO", "text": "as §1"}, "[5]": {"tested_on": "Male Long-Evans rats", "experiment": "Neocortical arousal by quantitative electroencephalography (QEEG)", "assay_type": "in vivo", "details": "rat, 10.0, 32.0 and 100.0 mg/kg tested", "text": "The methodology for determining neocortical arousal in rats by quantitative electroencephalography (QEEG) is as follows:\nMale Long-Evans rats weighing 350 to 500 g were surgically implanted with stainless steel electrodes screwed into the skull surface overlying the frontal and occipital cortex. Electrodes were secured to a plastic connector (Plastic Products Model MS-363) which was permanently attached to the skull surface with dental acrylic. Animals were given one week to recover from surgery before testing.\nAfter recovery from surgery, QEEG was measured Briefly, animals were placed into sound attenuating chambers during the light cycles of the rats diurnal cycle. Animals were allowed two hours to habituate to these environments. Thereafter, EEG was recorded continuously for ten minutes before and two hours after drug administration. Every other one-second sample of EEG was converted from the time to the frequency domain using a fast fourier transformation (FFT). […] Mean power within the 0 to 4 (delta), 5 to 8 (theta), 9 to 15 (alpha), 16 to 25 (beta) Hz bands was calculated separately for each bandwidth. Total power within all bandwidths also was calculated. […]\nData from each bandwidth and total power were analyzed separately using nonparametric ranked analysis of variance (Kruskals-Wallis rank transformed analysis with repeated measures). […]"}, "[6]": {"tested_on": "awake unanesthetized rat", "experiment": "Heart rate in the awake unanesthetized rat", "assay_type": "in vivo", "details": "increase = M1 response, decrease = M2 response", "text": "as §1"}, "[7]": {"experiment": "Oral availability and duration of action", "details": "in vivo"}}}
{"smiles": "CCN1C(=O)OC[C@@H]1Cc1cncn1C", "note": "[(S)-3-ethyl-4-[(1-methyl-1H-imidazol-5-yl)methyl]-2-oxazolidinone]", "values": [{"measurement": "RQNB/RCMD (ratio of IC50 values, muscarinic antagonist/agonist binding)", "setting": "[1]", "value": 214}, {"measurement": "selectivity for M1 receptors over M2 receptors", "setting": "[2]; receptor binding", "value": 3, "unit": "fold"}, {"measurement": "M1/M2 (RECEPTOR BINDING)", "setting": "[2]; transformed cells with only M1 receptors vs heart tissue (M2)", "value": 3.3}, {"measurement": "ED50", "setting": "[3]", "value": 1.6, "unit": "mg/kg"}, {"measurement": "ED50", "setting": "[4]", "value": 13.1, "unit": "mg/kg"}, {"measurement": "ELECTROENCEPHALOGRAPHY (ACTIVE DOSE RANGE, mg/kg, PO)", "setting": "[5]", "value": "10-100 mg/kg"}, {"measurement": "effect on heart rate", "setting": "[6]", "value": "increases (an M1 response) rather than decreases (an M2 response) heart rate"}, {"measurement": "duration of action", "setting": "[7]", "value": "reasonable duration of action"}, {"measurement": "oral availability", "setting": "[7]; po", "value": "good oral availability"}]}
